The values that follow come from patent US20070259914A1, “Novel Piperidine Derivates as Modulators of Chemokine Receptor Ccr5” (priority 2004, published 2007).

recombinant human CCR5 receptor, sequence (P51681 whole entry): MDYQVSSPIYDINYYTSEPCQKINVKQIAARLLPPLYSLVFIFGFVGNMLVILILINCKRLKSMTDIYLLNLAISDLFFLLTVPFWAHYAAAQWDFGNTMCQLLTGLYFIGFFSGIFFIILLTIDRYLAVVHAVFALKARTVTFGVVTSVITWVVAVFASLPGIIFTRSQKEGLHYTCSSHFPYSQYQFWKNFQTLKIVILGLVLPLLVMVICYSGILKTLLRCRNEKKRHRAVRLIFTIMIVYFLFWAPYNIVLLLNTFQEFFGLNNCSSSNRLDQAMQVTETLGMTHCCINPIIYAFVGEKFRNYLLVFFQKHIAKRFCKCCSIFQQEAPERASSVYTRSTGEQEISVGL

The assay deals with recombinant human CCR5 receptor (Homo sapiens, UniProt P51681). The assay is described as follows: MIP-1α radioligand binding assay (scintillation proximity, CHO cell membranes). The settings on record: displacement of 0.1 nM iodinated MIP-1α from membranes of Chinese hamster ovary cells expressing recombinant human CCR5; average if tested more than once. As to the method:
The ability of compounds to inhibit the binding of MIP-1α was assessed by an in vitro radioligand binding assay. Membranes were prepared from Chinese hamster ovary cells which expressed the recombinant human CCR5 receptor. These membranes were incubated with 0.1 nM iodinated MIP-1α, scintillation proximity beads and various concentrations of the compounds of the invention in 96-well plates. The amount of iodinated MIP-1α bound to the receptor was determined by scintillation counting.
In Table II the results are presented as Pic50 values. […] If a as tested more than once then the data below is an average of the probative tests
In general, IC50 refers to the concentration that gives 50% inhibition. Consider `CCN(C(=O)Cc1ccc(S(C)(=O)=O)cc1)C1CCN(CC[C@@H](c2cc(F)cc(F)c2)C2CCN(S(C)(=O)=O)CC2)CC1` [Compound 1, N-(1-{(3R)-3-(3,5-difluorophenyl)-3-[1-(methylsulfonyl)piperidin-4-yl]propyl}piperidin-4-yl)-N-ethyl-2-[4-(methylsulfonyl)phenyl]-acetamide], for which the IC50 was 0.316 nM.

As to `CS(=O)(=O)c1ccc(CC(=O)N(C2CC2)C2CCN(CC[C@@H](c3cc(F)cc(F)c3)C3CCN(S(C)(=O)=O)CC3)CC2)cc1` [Compound 4], the IC50 is 1.58 nM.

Turning to `CCN(C(=O)NCc1ccc(S(C)(=O)=O)cc1)C1CCN(CC[C@@H](c2cc(F)cc(F)c2)C2CCN(S(C)(=O)=O)CC2)CC1` [Compound 2], the concentration for half-maximal inhibition (IC50) is 0.501 nM.

Regarding `CCN(C(=O)Cc1ccc(S(C)(=O)=O)cc1)C1CCN(CC[C@@H](c2cccc(C(F)(F)F)c2)C2CCN(S(C)(=O)=O)CC2)CC1` [Compound 3], the IC50 was 3.55 nM.
